From article PMC7591906, “pHLIP ICG for delineation of tumors and blood flow during fluorescence-guided surgery” (Scientific Reports, 2020) come the findings set out here.

Data set [1] concerns MDA-MB-231, 4T1, A549, LLC, M4A4, HeLa, UM-UC3 and LNCaP tumors. Briefly: Tumor targeting, NIR fluorescence imaging in different tumor models. The format is in vivo, athymic female nude mice. The settings on record: 24 h after single i.v. 0.5 mg/kg, 8 tumor models, Stryker clinical imaging system, skin removed. The method, then:
Targeting of murine and human tumors was shown in 8 different tumor models in athymic female nude mice (strain Hsd Athymic Nude-Foxn1nu) ranging in age from 5 to 6 weeks (obtained from Envigo RMS, Inc). The following tumors were established by subcutaneous injection of 1 x 10^6 cells/0.1 ml/flank in flanks of athymic nude mice: HeLa (humans cervical adenocarcinoma), M4A4 (human epithelial carcinoma), 4T1 (murine breast tumor), A549 (human lung carcinoma), LLC (murine Lewis Lung carcinoma), UM-UC3 (human urinary bladder cancer), and 4 x 10^6 cells/0.1 ml/flank of LNCaP tumor (human prostate cancer). Human MDA-MB-231 (breast adenocarcinoma) tumors were established by injections of 1 x 10^6 cells/0.05 ml in the mammary fat pad. […] Finally, surgery was carried out under fluorescence-guidance to remove tumor and to image the tumor bed using the Stryker SPY-PHI handheld clinical imaging system.

A short description of data set [2]: pH-dependent insertion into POPC liposomes (circular dichroism at 222 nm). The settings on record: 5 µM pHLIP ICG, 750 µM POPC liposomes, CD 222 nm, 25.0°C, Henderson-Hasselbalch fit. The format is physicochemical. On the procedure:
POPC (1-palmitoyl-2-oleoyl-sn-glycero-3-phosphocholine, Avanti Polar Lipids, Inc.) liposomes were used in biophysical measurements to mimic cell membranes and investigate the pHLIP ICG interactions with lipid bilayers. Large unilamellar vesicles (LUVs) were prepared by extrusion. POPC dissolved in chloroform was desolvated in a rotary evaporator and placed under high vacuum for 2 hours to create a phospholipid film. Lipids were then rehydrated in phosphate buffer (pH8) and repeatedly extruded through membranes with a pore size of 100 nm to make LUVs.
Circular dichroism (CD) measurements were employed to monitor the pH-dependent insertion of pHLIP ICG into the membrane of POPC liposomes and the formation of helical structure. […] CD spectra were recorded from 200 to 260 nm with steps of 1 nm. The pH-dependent insertion of pHLIP ICG into the lipid bilayer of POPC liposomes was studied by monitoring the changes in the molar ellipticity (measured in millidegrees) at 222 nm as a function of pH. After the addition of aliquots of citric acid, the pHs of solutions containing 5 μM pHLIP ICG and 750 µM POPC liposomes were measured using an Orion PerHecT ROSS Combination pH Micro Electrode and an Orion Dual Star pH and ISE Benchtop Meter before and after each spectrum measurement to ensure that equilibrium is achieved. […]
A general note: CD spectra are sensitive to the conformation of chiral molecules.

The structures appear in SMILES notation. Peptide text beside a SMILES is read from it. * marks the point of attachment. X1 = CC1(C)C(/C=C/C=C/C=C/C=C2/N(CCCCCC(=O)NCCN3C(=O)CC(*)C3=O)c3ccc4ccccc4c3C2(C)C)=[N+](CCCCS(=O)(=O)[O-])c2ccc3ccccc3c21

For `CC(C)C[C@H](NC(=O)[C@H](Cc1ccc(O)cc1)NC(=O)[C@H](C)NC(=O)[C@H](CCCNC(=N)N)NC(=O)[C@H](Cc1c[nH]c2ccccc12)NC(=O)[C@@H]1CCCN1C(=O)[C@H](CC(N)=O)NC(=O)[C@H](CCC(N)=O)NC(=O)[C@H](CC(=O)O)NC(=O)[C@H](CC(=O)O)NC(=O)[C@H](CSC1CC(=O)N(CCNC(=O)CCCCCN2/C(=C/C=C/C=C/C=C/C3=[N+](CCCCS(=O)(=O)[O-])c4ccc5ccccc5c4C3(C)C)C(C)(C)c3c2ccc2ccccc32)C1=O)NC(=O)[C@H](C)N)C(=O)N[C@@H](CC(=O)O)C(=O)N[C@@H](CC(C)C)C(=O)N[C@@H](CC(C)C)C(=O)N[C@@H](Cc1ccccc1)C(=O)N1CCC[C@H]1C(=O)N[C@H](C(=O)N[C@@H](CC(=O)O)C(=O)N[C@H](C(=O)N[C@@H](CC(C)C)C(=O)N[C@@H](CC(C)C)C(=O)N[C@@H](CC(C)C)C(=O)N[C@@H](CC(=O)O)C(=O)N[C@@H](CC(C)C)C(=O)N[C@@H](CC(C)C)C(=O)N[C@@H](Cc1c[nH]c2ccccc12)C(=O)N[C@@H](C)C(=O)O)[C@@H](C)O)[C@@H](C)O` (some centres unmarked) [pHLIP ICG] (H-AC(X1)DDQNPWRAYLDLLFPTDTLLLDLLWA-OH), the Tumor targeting result in data set [1] is “Excellent tumor targeting”. The “Midpoint of the transition (pK) of insertion into liposomes” value in data set [2] was 6.3 pH.
